Converted amounts (≈) assume the structure as drawn. Each block holds one compound with its values, some of them ahead of it.
Columns and labels:
[1] = molecular target: T1, TRAF2 and NCK-interacting protein kinase (Homo sapiens, UniProt Q9UKE5); assay: Inhibition of TNIK (unknown origin) by ADP glo luminescent assay
Target sequence in this assay (Q9UKE5 whole entry): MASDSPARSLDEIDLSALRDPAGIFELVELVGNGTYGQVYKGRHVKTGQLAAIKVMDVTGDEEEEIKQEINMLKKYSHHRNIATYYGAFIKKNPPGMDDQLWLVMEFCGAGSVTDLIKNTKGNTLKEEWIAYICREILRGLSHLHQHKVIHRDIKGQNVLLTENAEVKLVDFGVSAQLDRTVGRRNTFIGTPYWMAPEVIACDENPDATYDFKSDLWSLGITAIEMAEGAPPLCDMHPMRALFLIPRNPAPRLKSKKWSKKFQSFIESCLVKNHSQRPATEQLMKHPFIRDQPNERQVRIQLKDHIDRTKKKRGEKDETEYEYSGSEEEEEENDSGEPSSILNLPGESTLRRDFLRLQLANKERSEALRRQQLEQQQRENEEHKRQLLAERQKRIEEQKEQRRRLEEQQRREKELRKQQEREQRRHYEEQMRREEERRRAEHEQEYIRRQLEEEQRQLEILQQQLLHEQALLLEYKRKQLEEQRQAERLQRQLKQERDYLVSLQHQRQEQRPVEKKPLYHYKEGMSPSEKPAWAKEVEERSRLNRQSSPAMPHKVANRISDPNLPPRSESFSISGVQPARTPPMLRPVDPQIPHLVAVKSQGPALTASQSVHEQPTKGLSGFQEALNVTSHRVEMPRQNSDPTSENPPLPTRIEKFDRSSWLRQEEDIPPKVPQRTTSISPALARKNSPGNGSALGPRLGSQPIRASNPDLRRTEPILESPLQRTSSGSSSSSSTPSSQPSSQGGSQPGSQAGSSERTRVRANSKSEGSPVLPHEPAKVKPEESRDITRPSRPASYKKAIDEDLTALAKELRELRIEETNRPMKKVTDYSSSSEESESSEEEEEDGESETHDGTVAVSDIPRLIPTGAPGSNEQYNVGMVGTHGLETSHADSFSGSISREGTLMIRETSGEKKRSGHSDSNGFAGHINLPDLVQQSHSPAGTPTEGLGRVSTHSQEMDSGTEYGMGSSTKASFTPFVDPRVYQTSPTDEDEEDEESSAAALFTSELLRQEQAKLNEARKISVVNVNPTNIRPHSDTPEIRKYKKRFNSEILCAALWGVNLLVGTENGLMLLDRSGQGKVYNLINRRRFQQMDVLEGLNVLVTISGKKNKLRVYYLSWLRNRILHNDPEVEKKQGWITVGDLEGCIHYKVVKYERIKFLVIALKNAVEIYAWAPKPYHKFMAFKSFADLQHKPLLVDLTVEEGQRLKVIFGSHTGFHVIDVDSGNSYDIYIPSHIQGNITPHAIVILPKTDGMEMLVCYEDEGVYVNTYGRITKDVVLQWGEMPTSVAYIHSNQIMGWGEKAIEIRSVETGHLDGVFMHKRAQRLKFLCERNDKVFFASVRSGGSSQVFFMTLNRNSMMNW

[2] = molecular target: Voltage-gated inwardly rectifying potassium channel KCNH2 (Homo sapiens, UniProt Q12809); assay: Inhibition of human ERG by patch clamp assay
[3] = Solubility of the compound in phosphate buffer at pH 7.4; type: physicochemical
[4] = molecular target: Serine/threonine-protein kinase Chk1 (Homo sapiens) (UniProt O14757); assay: Inhibition of CHK1 (unknown origin) at 1 uM
Chain of Serine/threonine-protein kinase Chk1 (Homo sapiens) (O14757 whole entry): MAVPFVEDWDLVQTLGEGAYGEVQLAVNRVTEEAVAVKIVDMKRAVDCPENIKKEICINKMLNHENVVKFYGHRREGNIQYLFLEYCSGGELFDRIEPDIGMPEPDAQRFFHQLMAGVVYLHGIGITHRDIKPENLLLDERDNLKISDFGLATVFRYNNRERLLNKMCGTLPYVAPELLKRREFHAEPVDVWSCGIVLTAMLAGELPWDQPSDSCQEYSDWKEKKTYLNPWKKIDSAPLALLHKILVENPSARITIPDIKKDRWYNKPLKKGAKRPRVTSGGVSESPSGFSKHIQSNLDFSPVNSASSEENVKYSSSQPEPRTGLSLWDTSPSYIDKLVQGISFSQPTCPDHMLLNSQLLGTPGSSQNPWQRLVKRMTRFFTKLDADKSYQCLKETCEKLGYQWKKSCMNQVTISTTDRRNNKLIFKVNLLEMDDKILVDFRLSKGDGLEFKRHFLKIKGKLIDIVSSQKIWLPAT

[5] = Apparent permeability across basolateral to apical side in human Caco2 cells; type: ADME, cell-based; details: Caco-2
[6] = molecular target: T1, TRAF2 and NCK-interacting protein kinase; details: 1 uM
Target sequence in this assay (Q9UKE5 whole entry, looked up): as the sequence (Q9UKE5 whole entry) above

[7] = molecular target: Mitogen-activated protein kinase kinase kinase kinase 4 (Homo sapiens) (UniProt O95819); details: 1 uM
[8] = molecular target: Macrophage colony-stimulating factor 1 receptor (Homo sapiens) (UniProt P07333); assay: Inhibition of FMS (unknown origin) at 1 uM
Chain of Macrophage colony-stimulating factor 1 receptor (Homo sapiens) (P07333 whole entry): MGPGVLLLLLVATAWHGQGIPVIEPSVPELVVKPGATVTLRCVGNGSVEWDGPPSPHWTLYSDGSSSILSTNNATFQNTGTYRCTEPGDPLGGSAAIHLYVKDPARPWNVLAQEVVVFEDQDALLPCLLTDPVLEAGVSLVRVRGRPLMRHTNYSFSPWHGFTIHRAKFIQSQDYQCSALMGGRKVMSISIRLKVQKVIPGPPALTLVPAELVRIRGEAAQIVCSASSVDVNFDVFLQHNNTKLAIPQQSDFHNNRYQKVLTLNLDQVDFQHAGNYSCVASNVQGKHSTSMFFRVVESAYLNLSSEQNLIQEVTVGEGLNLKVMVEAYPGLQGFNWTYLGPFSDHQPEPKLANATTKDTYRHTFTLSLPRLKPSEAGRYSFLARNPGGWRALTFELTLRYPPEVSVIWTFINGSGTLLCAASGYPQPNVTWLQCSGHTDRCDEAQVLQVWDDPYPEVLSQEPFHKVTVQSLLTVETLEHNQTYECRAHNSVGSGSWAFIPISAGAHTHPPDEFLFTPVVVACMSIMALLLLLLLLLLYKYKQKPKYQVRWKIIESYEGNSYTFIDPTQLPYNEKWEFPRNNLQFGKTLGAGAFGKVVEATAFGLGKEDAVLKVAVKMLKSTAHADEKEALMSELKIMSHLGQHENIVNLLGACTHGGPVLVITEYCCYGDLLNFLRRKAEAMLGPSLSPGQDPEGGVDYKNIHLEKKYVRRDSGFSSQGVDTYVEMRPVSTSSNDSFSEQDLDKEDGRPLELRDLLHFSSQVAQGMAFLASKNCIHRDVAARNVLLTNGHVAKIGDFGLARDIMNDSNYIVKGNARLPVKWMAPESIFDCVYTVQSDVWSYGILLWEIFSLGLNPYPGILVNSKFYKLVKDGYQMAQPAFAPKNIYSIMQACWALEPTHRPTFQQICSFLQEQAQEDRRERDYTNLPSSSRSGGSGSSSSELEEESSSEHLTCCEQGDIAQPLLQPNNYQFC

[9] = molecular target: CDK6/cyclin D1 (Homo sapiens) (UniProt P24385+Q00534); assay: Inhibition of CDK6/Cyclin D1 (unknown origin) at 1 uM; type: protein-complex assay
[10] = molecular target: Receptor-type tyrosine-protein kinase FLT3 (Homo sapiens) (UniProt P36888); assay: Inhibition of FLT3 (unknown origin) at 1 uM
[11] = molecular target: Inhibitor of nuclear factor kappa-B kinase subunit epsilon (Homo sapiens) (UniProt Q14164); assay: Inhibition of IKKepsilon (unknown origin) at 1 uM
Chain of Inhibitor of nuclear factor kappa-B kinase subunit epsilon (Homo sapiens) (Q14164 whole entry): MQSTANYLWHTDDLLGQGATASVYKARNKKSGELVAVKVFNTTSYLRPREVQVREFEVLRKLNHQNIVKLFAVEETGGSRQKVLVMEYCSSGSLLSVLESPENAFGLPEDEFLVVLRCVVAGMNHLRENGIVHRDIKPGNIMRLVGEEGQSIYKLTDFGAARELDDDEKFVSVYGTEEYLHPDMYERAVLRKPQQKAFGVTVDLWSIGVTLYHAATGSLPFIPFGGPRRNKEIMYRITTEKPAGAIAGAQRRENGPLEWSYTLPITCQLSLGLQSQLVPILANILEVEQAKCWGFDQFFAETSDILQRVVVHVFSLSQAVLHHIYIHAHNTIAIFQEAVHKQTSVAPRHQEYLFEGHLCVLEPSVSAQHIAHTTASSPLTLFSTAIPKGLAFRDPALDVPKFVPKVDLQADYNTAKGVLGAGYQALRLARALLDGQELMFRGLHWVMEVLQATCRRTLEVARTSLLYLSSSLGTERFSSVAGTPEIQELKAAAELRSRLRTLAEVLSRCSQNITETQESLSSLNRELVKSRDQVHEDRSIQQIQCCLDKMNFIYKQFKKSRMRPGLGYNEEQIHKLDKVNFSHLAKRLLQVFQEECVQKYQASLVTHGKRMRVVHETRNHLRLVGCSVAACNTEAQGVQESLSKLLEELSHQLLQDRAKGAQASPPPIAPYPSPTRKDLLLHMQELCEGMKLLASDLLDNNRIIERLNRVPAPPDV

[12] = molecular target: T1, TRAF2 and NCK-interacting protein kinase; assay: Inhibition of TNIK-mediated TCF4/[…] transcription in human HCT116 cells by beta-lactamase reporter gene assay; type: cell-based, HCT-116
Target sequence in this assay (Q9UKE5 whole entry): as the sequence (Q9UKE5 whole entry) above

[13] = Apparent permeability across apical to basolateral side in human Caco2 cells; type: ADME, cell-based; details: Caco-2
[14] = test system: HCT-116; assay: Cytotoxicity against wnt-activated human HCT116 cells assessed as cell viability; type: functional, cell-based
[15] = test system: HeLa; assay: Cytotoxicity against wnt-inactivated human HeLa cells assessed as cell viability; type: functional, cell-based
[16] = test system: DLD-1; assay: Cytotoxicity against wnt-activated human DLD1 cells assessed as cell viability; type: functional, cell-based
[17] = test system: HEK293; assay: Cytotoxicity against wnt-inactivated human HEK293 cells assessed as cell viability; type: functional, cell-based
[18] = test system: Caco-2; assay: Ratio of apparent permeability across basolateral to apical side over apical to basolateral side in human Caco2 cells; type: ADME, cell-based
[19] = molecular target: T1, TRAF2 and NCK-interacting protein kinase; assay: Competitive binding affinity to TNIK (unknown origin) in presence of ATP
Target sequence in this assay (Q9UKE5 whole entry): as above

[20] = molecular target: T1, TRAF2 and NCK-interacting protein kinase; assay: Ratio of IC50 for TNIK-mediated TCF4/[…] transcription in human HCT116 cells to IC50 for TNIK (unknown origin); type: cell-based; details: HCT-116
Target sequence in this assay (Q9UKE5 whole entry, looked up): as the sequence (Q9UKE5 whole entry) above

[21] = Inhibition of CBP binding to […] in human SW480 cells by immunoblot analysis; type: cell-based

Chain of Voltage-gated inwardly rectifying potassium channel KCNH2 (Q12809 whole entry): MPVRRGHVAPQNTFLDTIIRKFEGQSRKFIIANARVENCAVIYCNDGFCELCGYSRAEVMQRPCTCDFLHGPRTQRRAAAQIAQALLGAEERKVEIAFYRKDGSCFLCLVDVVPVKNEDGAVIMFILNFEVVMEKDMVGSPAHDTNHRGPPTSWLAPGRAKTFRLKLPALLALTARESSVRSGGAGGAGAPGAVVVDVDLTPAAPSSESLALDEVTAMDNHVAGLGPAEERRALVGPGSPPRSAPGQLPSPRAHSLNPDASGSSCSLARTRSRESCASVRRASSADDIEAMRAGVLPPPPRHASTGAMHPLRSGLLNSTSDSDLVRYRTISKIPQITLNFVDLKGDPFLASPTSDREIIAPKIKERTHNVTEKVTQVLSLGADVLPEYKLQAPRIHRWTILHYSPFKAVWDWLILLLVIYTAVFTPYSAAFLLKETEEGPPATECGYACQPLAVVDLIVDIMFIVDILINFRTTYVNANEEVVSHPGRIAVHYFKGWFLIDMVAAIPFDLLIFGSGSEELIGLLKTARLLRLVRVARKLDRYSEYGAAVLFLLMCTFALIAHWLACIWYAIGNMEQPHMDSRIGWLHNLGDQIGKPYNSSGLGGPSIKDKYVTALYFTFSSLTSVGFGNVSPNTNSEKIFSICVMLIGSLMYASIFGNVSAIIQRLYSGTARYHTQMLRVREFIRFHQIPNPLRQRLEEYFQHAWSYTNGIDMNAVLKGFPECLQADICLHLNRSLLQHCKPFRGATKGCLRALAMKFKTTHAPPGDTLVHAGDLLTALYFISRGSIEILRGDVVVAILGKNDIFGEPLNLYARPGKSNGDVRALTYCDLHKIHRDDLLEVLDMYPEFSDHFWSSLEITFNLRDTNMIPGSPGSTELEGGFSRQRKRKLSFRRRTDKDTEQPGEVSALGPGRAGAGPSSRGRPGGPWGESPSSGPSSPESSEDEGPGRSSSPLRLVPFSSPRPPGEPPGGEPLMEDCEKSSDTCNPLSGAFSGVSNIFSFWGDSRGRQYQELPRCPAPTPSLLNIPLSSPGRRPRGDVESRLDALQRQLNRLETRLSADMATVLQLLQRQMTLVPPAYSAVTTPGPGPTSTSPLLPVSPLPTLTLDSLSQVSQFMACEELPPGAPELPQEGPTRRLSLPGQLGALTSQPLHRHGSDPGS

IC50 [1]: 55 nM
SMILES: COc1cc(Nc2cc(-c3cccc(C#N)c3)ccn2)ccc1N1CCOCC1
IC50 [2]: 7700 nM

Ratio IC50 [20]: 2000
IC50 [1]: 4 nM
IC50 [12]: 7900 nM
SMILES: COc1ccc(Cl)cc1-c1ccnc(Nc2ccc(N3CCN(C)CC3)c(OC)c2)c1

Ratio IC50 [20]: 280
IC50 [1]: 11 nM
IC50 [12]: 3100 nM
SMILES: COc1ccc(C#N)cc1-c1ccnc(Nc2ccc(N3CCC(N(C)C)CC3)c(F)c2)c1
IC50 [14]: 260 nM
IC50 [15]: 1200 nM
IC50 [16]: 330 nM
IC50 [17]: 43 nM

IC50 [1]: 275 nM
SMILES: COc1ccc(C(F)(F)F)cc1-c1ccnc(Nc2ccc(N3CCOCC3)c(OC)c2)c1

IC50 [1]: > 1000 nM
SMILES: COc1cc(Nc2cc(-c3ccc(C#N)cc3)ccn2)ccc1N1CCOCC1

Ratio IC50 [20]: > 6000
IC50 [1]: 5 nM
IC50 [12]: > 30000 nM
SMILES: COc1ccc(C#N)cc1-c1ccnc(Nc2ccc(N3CCN(C)CC3)cc2)c1

IC50 [1]: 63 nM
SMILES: COc1cc(C#N)cc(-c2ccnc(Nc3ccc(N4CCOCC4)c(OC)c3)c2)c1

Ratio IC50 [20]: 2400
IC50 [1]: 11 nM
IC50 [12]: 26000 nM
SMILES: COc1ccc(C#N)cc1-c1ccnc(Nc2ccc(N3CCOCC3)cc2)c1

The next lines start with the compound.

SMILES: COc1ccc(Cl)cc1-c1ccnc(Nc2ccc(N3CCOCC3)c(OC)c2)c1
IC50 [1]: 41 nM
IC50 [2]: 20000 nM

SMILES: COc1cc(Nc2cc(-c3cccc(C#N)c3)ccn2)ccc1N1CCN(C)CC1
solubility [3]: 78 µM (≈ 31.2 µg/mL)
inhibition [4]: > 50%
Papp B→A [5]: 14.2 ×10⁻⁶ cm/s
inhibition [6]: > 95%
inhibition [7]: > 95%
IC50 [1]: 6 nM
inhibition [8]: 50%
inhibition [9]: > 50%
inhibition [10]: 50%
inhibition [11]: > 80%
IC50 [12]: 27000 nM
Papp A→B [13]: 16 ×10⁻⁶ cm/s

SMILES: COc1ccc(Cl)cc1-c1ccnc(Nc2ccc(CCN3CCOCC3)cc2)c1
IC50 [14]: 1700 nM
IC50 [15]: 3700 nM
IC50 [16]: 1100 nM
IC50 [1]: 20 nM
IC50 [17]: 59 nM

SMILES: COc1cc(Nc2cc(-c3cccc(CC#N)c3)ccn2)ccc1N1CCN(C)CC1
Ratio [18]: 0.93
solubility [3]: 94 µM (≈ 38.9 µg/mL)
Papp B→A [5]: 19.1 ×10⁻⁶ cm/s
IC50 [1]: 290 nM
Kd [19]: 220 nM
Papp A→B [13]: 20.5 ×10⁻⁶ cm/s

SMILES: COc1ccc(C#N)cc1-c1ccnc(Nc2ccc(N3CCN(C)CC3)c(OC)c2)c1
IC50 [1]: 3 nM

SMILES: O=C1[C@H](Cc2ccc(O)cc2)N2C(=O)CCN(C(=O)NCc3ccccc3)[C@H]2CN1Cc1cccc2ccccc12
IC50 [21]: 1300 nM

SMILES: COc1ccc(F)cc1-c1ccnc(Nc2ccc(N3CCOCC3)c(OC)c2)c1
IC50 [1]: 118 nM

SMILES: COc1ccc(C#N)cc1-c1ccnc(Nc2ccc(N3CCOCC3)c(OC)c2)c1
IC50 [14]: 2300 nM
IC50 [15]: 6800 nM
IC50 [16]: 5800 nM
IC50 [17]: 105 nM
